From patent US20250255867A1 (Kadmon Corporation, LLC, priority 2022, published 2025)

Conditions: Cohort 1 200 mg QD

CC(C)NC(=O)COc1cccc(-c2nc(Nc3ccc4[nH]ncc4c3)c3ccccc3n2)c1 [Belumosudil, 2-{3-[4-(1H-indazol-5-ylamino)-2-quinazolinyl]phenoxy}-N-(propan-2-yl) acetamide]
Hypogonadism: # Events: 1 | Hypogonadism: Affected/At Risk: 1/17 | Hypogonadism: Affected/At Risk (%): (5.88%) | Hypokalaemia: # Events: 1 | Hypokalaemia: Affected/At Risk: 1/17 | Hypokalaemia: Affected/At Risk (%): (5.88%) | Hypomagnesaemia: # Events: 1 | Hypomagnesaemia: Affected/At Risk: 1/17 | Hypomagnesaemia: Affected/At Risk (%): (5.88%) | Hyponatraemia: # Events: 1 | Hyponatraemia: Affected/At Risk: 1/17 | Hyponatraemia: Affected/At Risk (%): (5.88%) | Hypophosphataemia: # Events: 1 | Hypophosphataemia: Affected/At Risk: 1/17 | Hypophosphataemia: Affected/At Risk (%): (5.88%) | Hypothermia: # Events: 0 | Hypothermia: Affected/At Risk: 0/17 | Hypothermia: Affected/At Risk (%): (0%) | Hypothyroidism: # Events: 2 | Hypothyroidism: Affected/At Risk: 1/17 | Hypothyroidism: Affected/At Risk (%): (5.88%) | Hypoxia: # Events: 1 | Hypoxia: Affected/At Risk: 1/17 | Hypoxia: Affected/At Risk (%): (5.88%) | Impaired healing: # Events: 1 | Impaired healing: Affected/At Risk: 1/17 | Impaired healing: Affected/At Risk (%): (5.88%) | Influenza like illness: # Events: 1 | Influenza like illness: Affected/At Risk: 1/17 | Influenza like illness: Affected/At Risk (%): (5.88%) | Influenza: # Events: 2 | Influenza: Affected/At Risk: 2/17 | Influenza: Affected/At Risk (%): (11.76%) | Insomnia: # Events: 0 | Insomnia: Affected/At Risk: 0/17 | Insomnia: Affected/At Risk (%): (0%) | Irritability: # Events: 1 | Irritability: Affected/At Risk: 1/17 | Irritability: Affected/At Risk (%): (5.88%) | Joint range of motion decreased: # Events: 0 | Joint range of motion decreased: Affected/At Risk: 0/17 | Joint range of motion decreased: Affected/At Risk (%): (0%) | Lacrimation increased: # Events: 0 | Lacrimation increased: Affected/At Risk: 0/17 | Lacrimation increased: Affected/At Risk (%): (0%) | Leukaemia recurrent: # Events: 1 | Leukaemia recurrent: Affected/At Risk: 1/17 | Leukaemia recurrent: Affected/At Risk (%): (5.88%) | Leukocytosis: # Events: 1 | Leukocytosis: Affected/At Risk: 1/17 | Leukocytosis: Affected/At Risk (%): (5.88%) | Ligament sprain: # Events: 1 | Ligament sprain: Affected/At Risk: 1/17 | Ligament sprain: Affected/At Risk (%): (5.88%) | Limb injury: # Events: 1 | Limb injury: Affected/At Risk: 1/17 | Limb injury: Affected/At Risk (%): (5.88%) | Macular degeneration: # Events: 0 | Macular degeneration: Affected/At Risk: 0/17 | Macular degeneration: Affected/At Risk (%): (0%) | Migraine: # Events: 0 | Migraine: Affected/At Risk: 0/17 | Migraine: Affected/At Risk (%): (0%) | Muscle spasms: # Events: 1 | Muscle spasms: Affected/At Risk: 1/17 | Muscle spasms: Affected/At Risk (%): (5.88%) | Muscle spasticity: # Events: 1 | Muscle spasticity: Affected/At Risk: 1/17 | Muscle spasticity: Affected/At Risk (%): (5.88%) | Muscular weakness: # Events: 6 | Muscular weakness: Affected/At Risk: 4/17 | Muscular weakness: Affected/At Risk (%): (23.53%) | Musculoskeletal chest pain: # Events: 1 | Musculoskeletal chest pain: Affected/At Risk: 1/17 | Musculoskeletal chest pain: Affected/At Risk (%): (5.88%) | Myalgia: # Events: 2 | Myalgia: Affected/At Risk: 1/17 | Myalgia: Affected/At Risk (%): (5.88%) | Nail disorder: # Events: 1 | Nail disorder: Affected/At Risk: 1/17 | Nail disorder: Affected/At Risk (%): (5.88%) | Nasal congestion: # Events: 3 | Nasal congestion: Affected/At Risk: 3/17 | Nasal congestion: Affected/At Risk (%): (17.65%) | Nausea: # Events: 10 | Nausea: Affected/At Risk: 6/17 | Nausea: Affected/At Risk (%): (35.29%) | Neck pain: # Events: 1 | Neck pain: Affected/At Risk: 1/17 | Neck pain: Affected/At Risk (%): (5.88%) | Nephrotic syndrome: # Events: 1 | Nephrotic syndrome: Affected/At Risk: 1/17 | Nephrotic syndrome: Affected/At Risk (%): (5.88%) | Neuropathy peripheral: # Events: 0 | Neuropathy peripheral: Affected/At Risk: 0/17 | Neuropathy peripheral: Affected/At Risk (%): (0%) | Neutrophil count decreased: # Events: 1 | Neutrophil count decreased: Affected/At Risk: 1/17 | Neutrophil count decreased: Affected/At Risk (%): (5.88%) | Nocturia: # Events: 1 | Nocturia: Affected/At Risk: 1/17 | Nocturia: Affected/At Risk (%): (5.88%) | Non-cardiac chest pain: # Events: 0 | Non-cardiac chest pain: Affected/At Risk: 0/17 | Non-cardiac chest pain: Affected/At Risk (%): (0%) | Obesity: # Events: 2 | Obesity: Affected/At Risk: 2/17 | Obesity: Affected/At Risk (%): (11.76%) | Oedema peripheral: # Events: 3 | Oedema peripheral: Affected/At Risk: 3/17 | Oedema peripheral: Affected/At Risk (%): (17.65%) | Oedema: # Events: 0 | Oedema: Affected/At Risk: 0/17 | Oedema: Affected/At Risk (%): (0%) | Oesophageal ulcer: # Events: 0 | Oesophageal ulcer: Affected/At Risk: 0/17 | Oesophageal ulcer: Affected/At Risk (%): (0%) | Oral candidiasis: # Events: 3 | Oral candidiasis: Affected/At Risk: 2/17 | Oral candidiasis: Affected/At Risk (%): (11.76%) | Oropharyngeal pain: # Events: 1 | Oropharyngeal pain: Affected/At Risk: 1/17 | Oropharyngeal pain: Affected/At Risk (%): (5.88%) | Orthopnoea: # Events: 1 | Orthopnoea: Affected/At Risk: 1/17 | Orthopnoea: Affected/At Risk (%): (5.88%) | Osteonecrosis: # Events: 1 | Osteonecrosis: Affected/At Risk: 1/17 | Osteonecrosis: Affected/At Risk (%): (5.88%) | Osteopenia: # Events: 0 | Osteopenia: Affected/At Risk: 0/17 | Osteopenia: Affected/At Risk (%): (0%) | Osteoporosis: # Events: 0 | Osteoporosis: Affected/At Risk: 0/17 | Osteoporosis: Affected/At Risk (%): (0%) | Overdose: # Events: 1 | Overdose: Affected/At Risk: 1/17 | Overdose: Affected/At Risk (%): (5.88%) | Pain in extremity: # Events: 2 | Pain in extremity: Affected/At Risk: 2/17 | Pain in extremity: Affected/At Risk (%): (11.76%) | Pain: # Events: 3 | Pain: Affected/At Risk: 3/17 | Pain: Affected/At Risk (%): (17.65%) | Palpitations: # Events: 1 | Palpitations: Affected/At Risk: 1/17 | Palpitations: Affected/At Risk (%): (5.88%) | Paraesthesia: # Events: 0 | Paraesthesia: Affected/At Risk: 0/17 | Paraesthesia: Affected/At Risk (%): (0%) | Participants with TEAE: 17 (100%) participants | Participants with TESAE: 5 (29%) participants | Pericardial effusion: # Events: 1 | Pericardial effusion: Affected/At Risk: 1/17 | Pericardial effusion: Affected/At Risk (%): (5.88%) | Peripheral coldness: # Events: 1 | Peripheral coldness: Affected/At Risk: 1/17 | Peripheral coldness: Affected/At Risk (%): (5.88%) | Peripheral sensory neuropathy: # Events: 0 | Peripheral sensory neuropathy: Affected/At Risk: 0/17 | Peripheral sensory neuropathy: Affected/At Risk (%): (0%) | Phlebitis: # Events: 0 | Phlebitis: Affected/At Risk: 0/17 | Phlebitis: Affected/At Risk (%): (0%) | Photophobia: # Events: 0 | Photophobia: Affected/At Risk: 0/17 | Photophobia: Affected/At Risk (%): (0%) | Platelet count decreased: # Events: 3 | Platelet count decreased: Affected/At Risk: 1/17 | Platelet count decreased: Affected/At Risk (%): (5.88%) | Pleural effusion: # Events: 1 | Pleural effusion: Affected/At Risk: 1/17 | Pleural effusion: Affected/At Risk (%): (5.88%) | Pneumonia respiratory syncytial viral: # Events: 0 | Pneumonia respiratory syncytial viral: Affected/At Risk: 0/17 | Pneumonia respiratory syncytial viral: Affected/At Risk (%): (0%) | Pneumonia: # Events: 2 | Pneumonia: Affected/At Risk: 1/17 | Pneumonia: Affected/At Risk (%): (5.88%) | Pollakiuria: # Events: 1 | Pollakiuria: Affected/At Risk: 1/17 | Pollakiuria: Affected/At Risk (%): (5.88%) | Presyncope: # Events: 0 | Presyncope: Affected/At Risk: 0/17 | Presyncope: Affected/At Risk (%): (0%) | Productive cough: # Events: 2 | Productive cough: Affected/At Risk: 2/17 | Productive cough: Affected/At Risk (%): (11.76%) | Proteinuria: # Events: 2 | Proteinuria: Affected/At Risk: 2/17 | Proteinuria: Affected/At Risk (%): (11.76%) | Pruritus: # Events: 1 | Pruritus: Affected/At Risk: 1/17 | Pruritus: Affected/At Risk (%): (5.88%) | Pseudomonas infection: # Events: 1 | Pseudomonas infection: Affected/At Risk: 1/17 | Pseudomonas infection: Affected/At Risk (%): (5.88%) | Pulmonary mass: # Events: 0 | Pulmonary mass: Affected/At Risk: 0/17 | Pulmonary mass: Affected/At Risk (%): (0%) | Pyrexia: # Events: 3 | Pyrexia: Affected/At Risk: 1/17 | Pyrexia: Affected/At Risk (%): (5.88%) | Rash erythematous: # Events: 0 | Rash erythematous: Affected/At Risk: 0/17 | Rash erythematous: Affected/At Risk (%): (0%) | Rash maculo-papular: # Events: 2 | Rash maculo-papular: Affected/At Risk: 2/17 | Rash maculo-papular: Affected/At Risk (%): (11.76%) | Rash pustular: # Events: 0 | Rash pustular: Affected/At Risk: 0/17 | Rash pustular: Affected/At Risk (%): (0%) | Rash: # Events: 2 | Rash: Affected/At Risk: 1/17 | Rash: Affected/At Risk (%): (5.88%) | Red blood cells urine positive: # Events: 0 | Red blood cells urine positive: Affected/At Risk: 0/17 | Red blood cells urine positive: Affected/At Risk (%): (0%) | Renal failure: # Events: 0 | Renal failure: Affected/At Risk: 0/17 | Renal failure: Affected/At Risk (%): (0%) | Respiratory syncytial virus infection: # Events: 0 | Respiratory syncytial virus infection: Affected/At Risk: 0/17 | Respiratory syncytial virus infection: Affected/At Risk (%): (0%) | Respiratory tract infection fungal: # Events: 1 | Respiratory tract infection fungal: Affected/At Risk: 1/17 | Respiratory tract infection fungal: Affected/At Risk (%): (5.88%) | Respiratory tract infection: # Events: 1 | Respiratory tract infection: Affected/At Risk: 1/17 | Respiratory tract infection: Affected/At Risk (%): (5.88%) | Restless legs syndrome: # Events: 0 | Restless legs syndrome: Affected/At Risk: 0/17 | Restless legs syndrome: Affected/At Risk (%): (0%) | Rosacea: # Events: 0 | Rosacea: Affected/At Risk: 0/17 | Rosacea: Affected/At Risk (%): (0%) | SAE Abdominal wall haematoma, # events: 0 | SAE Abdominal wall haematoma, affected/at risk: 0/17 | SAE Acute kidney injury, # events: 0 | SAE Acute kidney injury, affected/at risk: 0/17 | SAE Acute lymphocytic leukaemia recurrent, # events: 0 | SAE Acute lymphocytic leukaemia recurrent, affected/at risk: 0/17 | SAE Acute respiratory failure, # events: 1 | SAE Acute respiratory failure, affected/at risk: 1/17 | SAE Anaphylactic reaction, # events: 1 | SAE Anaphylactic reaction, affected/at risk: 1/17 | SAE Bacteraemia, # events: 0 | SAE Bacteraemia, affected/at risk: 0/17 | SAE Cardiac arrest, # events: 0 | SAE Cardiac arrest, affected/at risk: 0/17 | SAE Cellulitis, # events: 0 | SAE Cellulitis, affected/at risk: 0/17 | SAE Chronic graft versus host disease in skin, # events: 0 | SAE Chronic graft versus host disease in skin, affected/at risk: 0/17 | SAE Citrobacter infection, # events: 0 | SAE Citrobacter infection, affected/at risk: 0/17 | SAE Dyspnoea, # events: 0 | SAE Dyspnoea, affected/at risk: 0/17 | SAE Embolism, # events: 0 | SAE Embolism, affected/at risk: 0/17 | SAE Febrile neutropenia, # events: 0 | SAE Febrile neutropenia, affected/at risk: 0/17 | SAE Graft versus host disease in lung, # events: 0 | SAE Graft versus host disease in lung, affected/at risk: 0/17 | SAE Hypoxia, # events: 0 | SAE Hypoxia, affected/at risk: 0/17 | SAE Influenza A virus test positive, # events: 1 | SAE Influenza A virus test positive, affected/at risk: 1/17 | SAE Influenza like illness, # events: 0 | SAE Influenza like illness, affected/at risk: 0/17 | SAE Lacunar infarction, # events: 0 | SAE Lacunar infarction, affected/at risk: 0/17 | SAE Leukaemia recurrent, # events: 0 | SAE Leukaemia recurrent, affected/at risk: 0/17
